Common to all, as to type: functional
The subject of experiment [1] is Streptococcus uberis. Kind of experiment: Antimicrobial activity against Streptococcus uberis UCN60 expressing mph(B) and rdmC-like genes by broth microdilution method.
The test system of experiment [2] is Streptococcus uberis. Kind of experiment: Antimicrobial activity against Streptococcus uberis UCN61 by broth microdilution method.
The subject of experiment [3] is Staphylococcus aureus. Kind of experiment: Antimicrobial activity against Staphylococcus aureus RN4220 harboring pAT392 containing mph(B) gene by broth microdilution method.
Experiment [4] relates to Enterococcus faecalis. Kind of experiment: Antimicrobial activity against Enterococcus faecalis JH2-2 harboring pAT392 containing mph(B) and rdmC-like gene by broth microdilution method. For orientation: In broth dilution the organism is exposed to a series of concentrations in liquid medium.
Experiment [5] has as its system Staphylococcus aureus. Kind of experiment: Antimicrobial activity against Staphylococcus aureus RN4220 harboring pAT392 containing mph(B) and rdmC-like genes by broth microdilution method.
The test system of experiment [6] is Enterococcus faecalis. Kind of experiment: Antimicrobial activity against Enterococcus faecalis JH2-2 harboring empty vector by broth microdilution method.
Experiment [7] relates to Enterococcus faecalis. Kind of experiment: Antimicrobial activity against Enterococcus faecalis JH2-2 harboring pAT392 containing mph(B) gene by broth microdilution method.
In experiment [8] the test system is Escherichia coli. Kind of experiment: Antimicrobial activity against Escherichia coli AG100A harboring empty vector by broth microdilution method.
Experiment [9] has as its system Escherichia coli. Kind of experiment: Antimicrobial activity against Escherichia coli AG100A harboring pAT392 containing rdmC-like gene by broth microdilution method.
Experiment [10] concerns Escherichia coli. Kind of experiment: Antimicrobial activity against Escherichia coli AG100A harboring pAT392 containing mph(B) gene by broth microdilution method.
Experiment [11] deals with Staphylococcus aureus. Kind of experiment: Antimicrobial activity against Staphylococcus aureus RN4220 harboring pAT392 containing rdmC-like gene by broth microdilution method.
Experiment [12] has as its system Enterococcus faecalis. Kind of experiment: Antimicrobial activity against Enterococcus faecalis JH2-2 harboring pAT392 containing rdmC-like gene by broth microdilution method.
In experiment [13] the test system is Staphylococcus aureus. Kind of experiment: Antimicrobial activity against Staphylococcus aureus RN4220 harboring empty vector by broth microdilution method.
Experiment [14] deals with Escherichia coli. Kind of experiment: Antimicrobial activity against Escherichia coli AG100A harboring pAT392 containing mph(B) and rdmC-like genes by broth microdilution method.

By MIC is commonly meant the smallest concentration in the dilution series that meets the test's criterion for growth inhibition. Low readings indicate inhibition by little substance, high ones a need for much substance.

≈ marks a conversion by molar mass, not a printed value.

Regarding `CC[C@H]1OC(=O)[C@H](C)[C@@H](O[C@H]2C[C@@](C)(OC)[C@@H](O)[C@H](C)O2)[C@H](C)[C@@H](O[C@@H]2O[C@H](C)C[C@H](N(C)C)[C@H]2O)[C@](C)(O)C[C@@H](C)CN(C)[C@H](C)[C@@H](O)[C@]1(C)O` [AZITHROMYCIN], the minimal inhibitory concentration (MIC) against Streptococcus uberis [1] and against Streptococcus uberis [2] was 0.12 µg/mL (≈ 0.16 µM) throughout.

For the compound `CCC[C@@H]1C[C@@H](C(=O)N[C@@H]([C@H]2O[C@H](SC)[C@H](O)[C@@H](O)[C@H]2O)[C@H](C)Cl)N(C)C1` [CLINDAMYCIN], the minimum inhibitory concentration (MIC) is 0.06 µg/mL (≈ 0.141 µM) against Staphylococcus aureus [3]; 0.03 µg/mL (≈ 0.0706 µM) against Streptococcus uberis [1]; 2 µg/mL (≈ 4.71 µM) against Enterococcus faecalis [4]; 0.06 µg/mL (≈ 0.141 µM) against Staphylococcus aureus [5]; 2 µg/mL (≈ 4.71 µM) in the experiment on Enterococcus faecalis [6]; 2 µg/mL (≈ 4.71 µM) with Enterococcus faecalis [7]. Also, the MIC in the experiment on Escherichia coli [8] was found to be 2 µg/mL (≈ 4.71 µM); in the experiment with Escherichia coli [9], 2 µg/mL (≈ 4.71 µM); against Escherichia coli [10], 2 µg/mL (≈ 4.71 µM); with Staphylococcus aureus [11], 0.06 µg/mL (≈ 0.141 µM); against Enterococcus faecalis [12] it was 2 µg/mL (≈ 4.71 µM); in the experiment with Streptococcus uberis [2] it was 0.03 µg/mL (≈ 0.0706 µM). For the same compound, the minimum inhibitory concentration (MIC) with Staphylococcus aureus [13] was found to be 0.06 µg/mL (≈ 0.141 µM); in the experiment with Escherichia coli [14], 2 µg/mL (≈ 4.71 µM).

Regarding `CC[C@H]1OC(=O)[C@H](C)[C@@H](O[C@H]2C[C@@](C)(OC)[C@@H](O)[C@H](C)O2)[C@H](C)[C@@H](O[C@@H]2O[C@H](C)C[C@H](N(C)C)[C@H]2O)[C@](C)(O)C[C@@H](C)C(=O)[C@H](C)[C@@H](O)[C@]1(C)O` [ERYTHROMYCIN], the minimum inhibitory concentration (MIC) amounted to 0.25 µg/mL (≈ 0.341 µM) in the experiment on Staphylococcus aureus [3]; 0.06 µg/mL (≈ 0.0818 µM) in the experiment on Streptococcus uberis [1]; 0.25 µg/mL (≈ 0.341 µM) against Enterococcus faecalis [4]; 0.25 µg/mL (≈ 0.341 µM) in the experiment with Staphylococcus aureus [5]; 0.25 µg/mL (≈ 0.341 µM) in the experiment on Enterococcus faecalis [6]; 0.25 µg/mL (≈ 0.341 µM) with Enterococcus faecalis [7]. In addition, the minimum inhibitory concentration (MIC) stood at 2 µg/mL (≈ 2.73 µM) in the experiment on Escherichia coli [8]; 2 µg/mL (≈ 2.73 µM) against Escherichia coli [9]; 64 µg/mL (≈ 87.2 µM) in the experiment on Escherichia coli [10]; 0.25 µg/mL (≈ 0.341 µM) in the experiment on Staphylococcus aureus [11]; 0.25 µg/mL (≈ 0.341 µM) against Enterococcus faecalis [12]; 0.06 µg/mL (≈ 0.0818 µM) in the experiment on Streptococcus uberis [2]. Further, the MIC against Staphylococcus aureus [13] is 0.25 µg/mL (≈ 0.341 µM); in the experiment with Escherichia coli [14] it was 64 µg/mL (≈ 87.2 µM).

Regarding `CO[C@@H]1[C@@H](O[C@@H]2O[C@H](C)[C@@H](O[C@H]3C[C@@](C)(O)[C@@H](OC(=O)CC(C)C)[C@H](C)O3)[C@H](N(C)C)[C@H]2O)[C@@H](CC=O)C[C@@H](C)[C@@H](O)/C=C/C=C/C[C@@H](C)OC(=O)C[C@H]1OC(C)=O` [JOSAMYCIN], the minimal inhibitory concentration (MIC) against Staphylococcus aureus [3] worked out at 1 µg/mL (≈ 1.21 µM); with Streptococcus uberis [1], 0.25 µg/mL (≈ 0.302 µM); with Enterococcus faecalis [4], 1 µg/mL (≈ 1.21 µM); against Staphylococcus aureus [5], 1 µg/mL (≈ 1.21 µM); in the experiment on Enterococcus faecalis [6] it was 1 µg/mL (≈ 1.21 µM); against Enterococcus faecalis [7], 1 µg/mL (≈ 1.21 µM). Moreover, the minimum inhibitory concentration (MIC) in the experiment on Escherichia coli [8] was 8 µg/mL (≈ 9.66 µM); in the experiment with Escherichia coli [9], 8 µg/mL (≈ 9.66 µM); against Escherichia coli [10] it was 16 µg/mL (≈ 19.3 µM); in the experiment on Staphylococcus aureus [11], 1 µg/mL (≈ 1.21 µM); with Enterococcus faecalis [12], 1 µg/mL (≈ 1.21 µM); against Streptococcus uberis [2], 0.25 µg/mL (≈ 0.302 µM). For the same compound, the MIC in the experiment on Staphylococcus aureus [13] was 1 µg/mL (≈ 1.21 µM); in the experiment on Escherichia coli [14] it was 16 µg/mL (≈ 19.3 µM).

Take `CC[C@H]1OC(=O)C[C@@H](O)[C@H](C)[C@@H](O[C@@H]2O[C@H](C)[C@@H](O[C@H]3C[C@@](C)(O)[C@@H](O)[C@H](C)O3)[C@H](N(C)C)[C@H]2O)[C@@H](CC=O)C[C@@H](C)C(=O)/C=C/C(C)=C/[C@@H]1CO[C@@H]1O[C@H](C)[C@@H](O)[C@@H](OC)[C@H]1OC` [TYLOSIN]: the minimum inhibitory concentration (MIC) worked out at 1 µg/mL (≈ 1.09 µM) in the experiment with Staphylococcus aureus [3]; 0.5 µg/mL (≈ 0.546 µM) in the experiment on Streptococcus uberis [1]; 16 µg/mL (≈ 17.5 µM) in the experiment with Enterococcus faecalis [4]; 16 µg/mL (≈ 17.5 µM) against Staphylococcus aureus [5]; 1 µg/mL (≈ 1.09 µM) in the experiment on Enterococcus faecalis [6]; 1 µg/mL (≈ 1.09 µM) with Enterococcus faecalis [7]. Besides, the minimum inhibitory concentration (MIC) against Escherichia coli [8] stood at 16 µg/mL (≈ 17.5 µM); against Escherichia coli [9] it was 16 µg/mL (≈ 17.5 µM); against Escherichia coli [10], 128 µg/mL (≈ 140 µM); with Staphylococcus aureus [11] it was 1 µg/mL (≈ 1.09 µM); with Enterococcus faecalis [12] it was 1 µg/mL (≈ 1.09 µM); with Streptococcus uberis [2], 0.5 µg/mL (≈ 0.546 µM). Moreover, the MIC was 1 µg/mL (≈ 1.09 µM) with Staphylococcus aureus [13] and greater than 128 µg/mL with Escherichia coli [14].

For the compound SPIRAMYCIN, the minimum inhibitory concentration (MIC) with Staphylococcus aureus [3] turned out to be 8 µg/mL; in the experiment with Streptococcus uberis [1] it was 8 µg/mL; in the experiment with Enterococcus faecalis [4], 64 µg/mL; against Staphylococcus aureus [5] it was 32 µg/mL; with Enterococcus faecalis [6], 0.5 µg/mL; in the experiment with Enterococcus faecalis [7] it was 8 µg/mL. For the same compound, the MIC worked out at 8 µg/mL with Escherichia coli [8]; 200 µg/mL in the experiment with Escherichia coli [9]; 400 µg/mL with Escherichia coli [10]; 4 µg/mL against Staphylococcus aureus [11]; 2 µg/mL against Enterococcus faecalis [12]; 0.5 µg/mL against Streptococcus uberis [2]. Further, the values for the MIC with Staphylococcus aureus [13] and against Escherichia coli [14] were 4 µg/mL and 1000 µg/mL, respectively.

The record behind these values is ChEMBL document CHEMBL1275476, “Emergence of macrolide resistance gene mph(B) in Streptococcus uberis and cooperative effects with rdmC-like gene” (2008).
